Data taken from article PMC6688508 (Journal of medicinal chemistry, 2019).

Columns and labels:
[1] = Mouse pharmacokinetic study, plasma and brain; format: in vivo, male Swiss Albino mice; conditions: mice
MOR [2] = target: T1, MOR (Homo sapiens, UniProt P35372); conditions: in vitro; cited from earlier work
MOR [3] = target: T1, MOR; conditions: in vitro; cited from earlier work; remark: listed apart in the source
[4] = 50 mg/kg intraperitoneal injection

T1 sequence (P35372 whole entry): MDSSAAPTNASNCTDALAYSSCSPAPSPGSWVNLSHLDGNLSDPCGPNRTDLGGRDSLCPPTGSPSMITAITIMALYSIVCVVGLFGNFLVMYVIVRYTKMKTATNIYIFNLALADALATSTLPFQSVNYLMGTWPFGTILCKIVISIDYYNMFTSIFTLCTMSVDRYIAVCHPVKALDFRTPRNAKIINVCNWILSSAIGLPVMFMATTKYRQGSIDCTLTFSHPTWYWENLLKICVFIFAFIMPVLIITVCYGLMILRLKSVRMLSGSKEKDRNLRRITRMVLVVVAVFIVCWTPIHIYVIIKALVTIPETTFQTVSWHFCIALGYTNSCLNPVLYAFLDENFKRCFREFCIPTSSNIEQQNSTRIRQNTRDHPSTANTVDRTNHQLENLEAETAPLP

SMILES	tolerability / clinical signs ([1]; 50 mg/kg intraperitoneal)	peak concentration in the brain [1, 4]	peak concentration in the plasma [1, 4]	EMAX, recruiting β-arrestin (MOR [2]) [%]	EMAX, activation of G protein signaling (MOR [3]) [%]
Nc1cc(Oc2nccc3occc23)ccc1-c1cccc2nccn12 [Compound 40, 5-(Furo[3,2-c]pyridin-4-yloxy)-2-(imidazo[1,2-a]pyridin-5-yl)-aniline]	well tolerated and no clinical signs were observed	approximately 100 μM	approximately 100 μM	–	–
COc1ccsc1CNCC[C@@]1(c2ccccn2)CCOC2(CCCC2)C1 [TRV130]	–	–	–	15	84
